{"source": "patent US20090220562A1", "about": "“Osteogenic and anti-adipogenic oxysterols” (priority 2005, published 2009)", "key": {"[1]": {"test_system": "M2 cells", "experiment": "Troglitazone-induced adipogenesis in M2 cells (oil Red O staining, adipocyte count)", "assay_type": "cell-based, mouse", "settings": "Tro 10 μM, oxysterol 10 μM, 10 days, alone or in combination", "experimental": "Von Kossa and oil red O staining—Matrix mineralization in cell monolayers was detected by silver nitrate staining as previously described. Oil red O staining for detection of adipocytes was performed as previously described.\nTest 1: M2 cells at 90% confluence were treated with vehicle (C), PPAR-γ activator, troglitazone 10 μM (Tro), alone or in combination with 10 μM oxysterols 20S-, 22R-, or 25S-hydroxycholesterol. After 8 days, adipocytes were identified by oil Red 0 staining and quantified by counting under a phase contrast microscope. FIG. 6A is a bar graph depicting the effect of oxysterols on reducing adipogenesis of MSC.\nTest 2: (A) M2 cells at confluence were treated in RPMI containing 10% FBS with control vehicle or 10 μM troglitazone (Tro) in the absence or presence of 10 μM 20S or 22S-hydroxycholesterol. After 10 days, adipocytes were visualized by oil Red O staining and quantified by light microscopy, shown in (B). […] (C) M2 cells were treated at confluence with 10 μM Tro, alone or in combination with 10 μM 20S oxysterol. After 10 days, total RNA was isolated and analyzed for lipoprotein lipase (LPL), adipocyte P2 gene (aP2) or 18S rRNA expression by Northern blotting as described (Ref). Data from densitometric analysis of the Northern blot is shown in (D) as the average of duplicate samples, normalized to 18S rRNA."}, "[2]": {"test_system": "M2-10B4 marrow stromal cells", "experiment": "Alkaline phosphatase (ALP) activity assay on whole cell extracts of M2-10B4 marrow stromal cells", "assay_type": "cell-based, mouse", "settings": "for induction of alkaline phosphatase activity: 10 μM oxysterol, 3 days, osteogenic medium", "experimental": "Cells: M2-10B4 mouse marrow stromal cell line obtained from American Type Culture Collection (ATCC, Rockville, Md., U.S.A.) was derived from bone marrow stromal cells of a (C57BL/6J x C3H/HeJ) Fl mouse, and support human and murine myelopoiesis in long-term cultures (as per ATCC) and have the ability to differentiate into osteoblastic and adipocytic cells. Unless specified, these cells were cultured in RPMI 1640 containing 10% heat-inactivated FBS, and supplemented with 1 mM sodium pyruvate, 100 U/ml penicillin, and 100 U/ml streptomycin (all from Irvine Scientific).\nCells were always treated at 90% confluence. […]\nNext, a combination of 22R and 20S oxysterols (RS, 2.5 μM each) were added in the presence or absence of SC as indicated. After 3 days, ALP activity was measured as described earlier. […] (B) M2 cells were treated as described in (A) and after 10 days matrix mineralization in cultures was quantified by a ^45Ca incorporation assay as described earlier. […] (C) M2 cells were pretreated with 20 μM SC for 4 hours, followed by the addition of RS in the presence or absence of SC as described above. After 8 days, total RNA was isolated and analyzed for osteocalcin (Osc) and […] expression by Northern blotting as previously described. Data from densitometric analysis of the Northern blot is shown in (D) as the average of duplicate samples, normalized to 18S rRNA. (E) M2 cells at confluence were pretreated for 2 hours with control vehicle (C), or PLA2 inhibitors ACA (25 μM) and AACOCF3 (AAC, 20 μM), in osteogenic medium. Next, a combination of 22R and 20S oxysterols (RS, 2.5 μM) was added in the presence or absence of the inhibitors as indicated. After 3 days, ALP activity was measured as previously described. […] (F) M2 cells were treated as described in (E). After 10 days, matrix mineralization in cultures was quantified using a ^45Ca incorporation assay as previously described. […]"}}, "data": [{"compound": "CC(C)CCC[C@](C)(O)[C@H]1CC[C@H]2[C@@H]3CC=C4C[C@@H](O)CC[C@]4(C)[C@H]3CC[C@@]21C", "note": "[20S-hydroxycholesterol]", "values": [{"measurement": "effect on troglitazone-induced adipogenesis", "setting": "[1]", "value": "inhibited adipogenesis"}, {"measurement": "induction of alkaline phosphatase activity", "setting": "[2]", "value": "induced"}, {"measurement": "alkaline phosphatase (ALP) activity", "setting": "[2]; doses of 5-15 μM", "value": "induction"}]}, {"compound": "CC(C)CC[C@@H](O)[C@@H](C)[C@H]1CC[C@H]2[C@@H]3CC=C4C[C@@H](O)CC[C@]4(C)[C@H]3CC[C@]12C", "note": "[22R-hydroxycholesterol]", "values": [{"measurement": "effect on troglitazone-induced adipogenesis", "setting": "[1]", "value": "inhibited adipogenesis"}, {"measurement": "induction of alkaline phosphatase activity", "setting": "[2]", "value": "induced"}]}, {"compound": "CC(C)CC[C@H](O)[C@@H](C)[C@H]1CC[C@H]2[C@@H]3CC=C4C[C@@H](O)CC[C@]4(C)[C@H]3CC[C@]12C", "note": "[22S-hydroxycholesterol]", "values": [{"measurement": "effect on troglitazone-induced adipogenesis", "setting": "[1]", "value": "inhibited adipogenesis"}, {"measurement": "induction of alkaline phosphatase activity", "setting": "[2]", "value": "induced"}]}]}
